Assay results as given in patent US20250268917A1, “PHARMACEUTICAL COMPOSITIONS AND METHODS FOR PREVENTION AND/OR TREATMENT OF INFLAMMATION” (REVEN PHARMACEUTICALS INC., priority 2020, published 2025).

Key:
LPS-GalN challenged mice = assay: LPS-GalN model of fatal cytokine storm and sepsis; RJX, DEX or RJX+DEX 2 hours post LPS-GalN; assay type: in vivo, BALB/c mice; conditions: for Censored: alive at 24 h; for Events: deaths within 24 h
[1] = equivalent to dexamethasone 0.75 mg; cited from earlier work
[2] = RJX 0.7 ml/kg (n=20), DEX 0.6 mg/kg (n=10), or both (n=20)

C[C@@H]1C[C@H]2[C@@H]3CCC4=CC(=O)C=C[C@]4(C)[C@@]3(F)[C@@H](O)C[C@]2(C)[C@@]1(O)C(=O)CO [DEX, dexamethasone]
Censored (LPS-GalN challenged mice; DEX 0.1 mg/kg i.p. 2 h post LPS-GalN, n=6): 1 | Median survival (LPS-GalN challenged mice; DEX 0.1 mg/kg, n=6): 5.1 h | Proportion (24-h mortality) (LPS-GalN challenged mice; DEX 0.1 mg/kg, n=6): 83.3% | Events (LPS-GalN challenged mice; DEX 0.1 mg/kg, n=6): 5 | Censored (LPS-GalN challenged mice; DEX 0.6 mg/kg i.p. 2 h post LPS-GalN, n=6): 3 | Median survival (LPS-GalN challenged mice; DEX 0.6 mg/kg, n=6): 15.0 h | Proportion (mortality) (LPS-GalN challenged mice; DEX 0.6 mg/kg, n=6): 50.0% | Events (LPS-GalN challenged mice; DEX 0.6 mg/kg, n=6): 3 | Censored (LPS-GalN challenged mice; DEX 6.0 mg/kg i.p. 2 h post LPS-GalN, n=6): 4 | Proportion (mortality) (LPS-GalN challenged mice; DEX 6.0 mg/kg, n=6): 33.3% | Events (LPS-GalN challenged mice; DEX 6.0 mg/kg, n=6): 2 | Proportion (mortality) (LPS-GalN challenged mice; [2]): 50.0% | Censored (LPS-GalN challenged mice; RJX 0.7 ml/kg (n=20), DEX 0.6 mg/kg (n=10), or both (n=20) 2 h post LPS-GalN): 5 | Events (LPS-GalN challenged mice; [2]): 5 | lung histopathological ALI scores, range (LPS-GalN challenged mice; RJX 0.7 ml/kg, DEX 6.0 mg/kg, alone or combined, n=6): 1-3 | ALI score of representative mouse (LPS-GalN challenged mice; single dose at 2 hours post-LPS-GalN, sacrificed at 24 hours, FIG. 20): 2

C[C@]12CCC(=O)C=C1CC[C@@H]1[C@@H]2C(=O)C[C@@]2(C)[C@H]1CC[C@]2(O)C(=O)CO [Cortisone]
Approximate Equivalent Dose [1]: 25 mg

C[C@]12CCC(=O)C=C1CC[C@@H]1[C@@H]2[C@@H](O)C[C@@]2(C)[C@H]1CC[C@]2(O)C(=O)CO [Hydrocortisone]
Approximate Equivalent Dose [1]: 20 mg

C[C@]12C=CC(=O)C=C1CC[C@@H]1[C@@H]2[C@@H](O)C[C@@]2(C)[C@H]1CC[C@]2(O)C(=O)CO [Prednisolone]
Approximate Equivalent Dose [1]: 5 mg

C[C@]12C=CC(=O)C=C1CC[C@H]1[C@@H]3C[C@@H](O)[C@](O)(C(=O)CO)[C@@]3(C)C[C@H](O)[C@@]12F [Triamcinolone]
Approximate Equivalent Dose [1]: 4 mg
